Results from US6429208B1, “Methods and compositions for restoring impaired cellular immune function” (Regents of the University of California, priority 1992, dated 2002).

Experiments:
[1] = system: normal PBMC; assay: PHA-induced proliferation of normal PBMC, 3H-thymidine uptake; assay type: cell-based, human; details: for ^3H-Thy. Incorp.: PHA alone 254.2 ± 9.0
Procedure: Peripheral blood mononuclear cells (PBMC) from healthy blood donors were isolated by Lymphoprep (Nyegaard and Co., Oslo, Norway) density gradient centrifugation. Cell cultures were prepared in Eppendorf tubes and contained 5-10×10^6 cells/ml for phosphotyrosine experiments and 2-5×10^6 cells/ml for the kinase experiments and the cAMP determinations described below. The concentration of PHA added per tube was 10 μg/ml of PHA-P (Wellcome, Beckenham, England). Phorbol 12 myristate-13 acetate (PMA) (P-8139, Sigma, St. Louis, Mo.) was dissolved in dimethylsulfoxide (DMSO) and used in optimal concentrations of 200 ng/ml. The total volume per tube was 1 ml.
(§1) Proliferative assays were performed as previously described (see, for example, Hofmann, B., et al., Cell Immunol (1989) 121:336-48. Briefly, one microcurie ^3H-thymidine was added to cultures 72 hours after stimulation, and after further 24 hours, all cultures were harvested on glass fiber filters with an automatic harvesting machine (Skatron, Lierbyen, Norway), and the incorporated radioactivity was measured in a liquid scintillation counter (Beckman LS 1800) after an addition of 1.5 ml scintillation fluid.
The concentration of Cholera toxoid was 10-0.2 μg/ml and 8-bromoadenosine 3′,5′ cyclic monophosphate (Br-cAMP) was 40-0.2 μg/ml. […] The PTK inhibitor Tyrphostin 25 (Bimol, Plymouth, Pa.) was used in a concentration of 1.0 μg/ml. Tyrphostin 25 has more than 30 fold higher affinity for PTK than for PKC and PKA. HIV components were added to final dilutions of 108-360 μg p24 antigen/mi.
Both Cholera toxoid or Br-cAMP impaired PHA-induced cell proliferation as measured by ^3H-thymidine uptake after 3 days of culture (Table 1). The 50% impairment of proliferation induced by HIV components is similar to the 50% impairment induced by 0.63 μg/ml of Cholera toxoid or […] of Br-cAMP. The experiment confirmed that cAMP impairs PHA-induced proliferation of T lymphocytes.

[2] = system: membrane PKC activity; assay: Membrane PKC activity in PBMC; assay type: cell-based, human
Procedure: The reagents were obtained as a kit from Gibco (Grand island, N.Y.) and the manufacturer's protocol was followed. After activation, cell membrane fractions were then obtained by ultracentrifugation (100,000 g for one hour at 4° C.) of sonicated cell lysates without detergent. Membrane fractions were then sonicated in the presence of 0.05% Triton X and the specific PKC activities were determined. Specific PKC activity was determined as the difference between phosphorylation of a PKC specific substrate with and without a specific PKC inhibitor present. The specific PKC substrate was a synthetic peptide from myelin basic protein with an acetylated N-terminal glutamine. The specific PKC inhibitor was a pseudo-substrate peptide which specifically binds to the pseudo-substrate region of the regulatory domain of PKC. The reaction mixture was spotted on cellulose paper, non-bound ^32P-ATP was removed by washing, and the paper discs were counted in a β counter after addition of scintillation fluid. The amounts of lysate over which the assay was linear were determined in initial experiments. All experiments were repeated 2-5 times.

[3] = system: PBMC from an HIV seropositive subject; assay: Proliferative response to PHA of PBMC from HIV seropositive subjects; assay type: cell-based, human
Procedure: as §1

[4] = system: PBMC from HIV seropositive subjects; assay: Intracellular cAMP in PBMC from HIV seropositive subjects; assay type: cell-based, human; details: 10 ng/ml for 10 min; decreased from 5.3
Procedure: The compound 2′,5′ dideoxyadenosine (ddAdo) inhibits adenylate cyclase, the enzyme responsible for the generation of cAMP, by competition for the “P”-binding site (Johnson, J Biochem (1990) 265:11595-11600). […] In one such experiment (FIG. 9A), the intracellular cAMP level decreased to normal levels within 4 hours and remained at this level when tested after 20 hours. The effect of ddAdo was compared with two other adenylate cyclase inhibitors which are naturally occurring adenosine phosphates. When used in equal concentrations, the three inhibitors gave similar reductions in intracellular CAMP levels. For example, when added in 10 ng/ml for 10 min, ddAdo decreased the CAMP levels from 5.3 pmol/10^6 PBMC to 3.6; 3′ AMP to 3.5; and 2′,3′deoxy-AMP reduced the level to 3.2 pmol/10^6 PBMC.
cAMP was determined using a commercial scintillation proximity RIA (Amersham, Arlington Heights, Ill.) following the manufacturer's protocol. PKA activity was determined using a kit from Gibco (Grand Island, N.Y.) and the manufacturer's protocol. For the cAMP assay, cells were lysed and sonicated in assay buffer (provided with the kits). Proliferative assays were performed as described above.
Further purification was achieved by reverse phase chromatography. 3 ml of above solution was applied on C18 Sep-Pak cartridge (Waters) equilibrated with water+0.1% TFA. The column was washed with H2O-TFA until absorbance at 280nm reached baseline. Bound material was eluted from the column by stepwise elution with H2O-acetonitrile-TFA mixtures. There were three peaks on elution curve at 20%, 40% and 70% acetonitrile. The effluent from the above step was rechromatographed again on C18 cartridge and yielded additional quantities of the three products. […] Fraction 2 was added in various PBS dilutions to lymphocytes from HIV seropositive subjects. cAMP was then measured on lysates of these cells after 1 hour.

[5] = molecular target: PKA (Homo sapiens, UniProt P17612); details: cited from earlier work
[6] = system: PTK; details: cited from earlier work
[7] = cells not stimulated (control), without inhibitor 1.3 ± 0.2
[8] = cells stimulated by HIV, without inhibitor 3.0 ± 0.2
[9] = cells stimulated by PHA, without inhibitor 4.2 ± 1.6

Compound	PKC membrane activity [2, 7]	PKC membrane activity [2, 8]	PKC membrane activity [2, 9]	Proliferative response to PHA [3]	cAMP levels [4] [pmol/10^6 PBMC]	further results
Nc1ncnc2c1nc(Br)n2[C@@H]1O[C@@H]2COP(=O)(O)O[C@H]2[C@H]1O [Br-cAMP, 8-bromoadenosine 3′,5′ cyclic monophosphate]	3.9 ± 1.7 nM of ^32P/minute/10^6 PBMC	2.2 ± 1.5 nM of ^32P/minute/10^6 PBMC	2.1 ± 1.6 nM of ^32P/minute/10^6 PBMC	–	–	Concentration inducing 50% impairment of PHA-induced proliferation ([1]; 3 days of culture): 200 µg/mL; Activity, percentage of activity of PHA control ([1]; PHA + 100 μg/ml): 66%; ^3H-Thy. Incorp. ([1]; PHA + 100 μg/ml): 168.7 ± 21.9 cpm ×10^−6; Activity, percentage of activity of PHA control ([1]; PHA + 200 μg/ml): 38%; ^3H-Thy. Incorp. ([1]; PHA + 200 μg/ml): 96.3 ± 14.4 cpm ×10^−6; Activity, percentage of activity of PHA control ([1]; PHA + 400 μg/ml): 16%; ^3H-Thy. Incorp. ([1]; PHA + 400 μg/ml): 41.6 ± 2.1 cpm ×10^−6
N#CC(C#N)=Cc1ccc(O)c(O)c1 [T-23]	–	–	–	enhance proliferation	–	–
Nc1ncnc2c1ncn2[C@@H]1O[C@H](CO)[C@@H](OP(=O)(O)O)[C@H]1O [3′ AMP]	–	–	–	–	3.5	–
2′,3′deoxy-AMP	–	–	–	–	3.2	–
O=S(=O)(NCCNC/C=C/c1ccc(Br)cc1)c1cccc2cnccc12 [H-89]	6.0 ± 1.9 nM of ^32P/minute/10^6 PBMC	12.9 ± 4.7 nM of ^32P/minute/10^6 PBMC	9.4 ± 5.5 nM of ^32P/minute/10^6 PBMC	enhance proliferation	–	Fold higher affinity for PKA than for PKC [5]: 660 fold
N#CC(C#N)=Cc1cc(O)c(O)c(O)c1 [Tyrophostin-25]	2.0 ± 0.9 nM of ^32P/minute/10^6 PBMC	4.6 ± 0.0 nM of ^32P/minute/10^6 PBMC	7.7 ± 7.7 nM of ^32P/minute/10^6 PBMC	–	–	Fold higher affinity for PTK than for PKC and PKA [6]: more than 30 fold
